Measured values from patent US20120237552A1, “Peptoid Agonists of Nerve Growth Factor and Their Use as Medicaments” (priority 2009, published 2012).
Entries after “also recorded” stand apart in the source; their conditions may differ.

Experiments:
PC12 cells = test: PC12 cell differentiation (neurite outgrowth); assay type: cell-based, rat; settings: 3 days, peptoids 2 ng/ml to 50 μg/ml, reduced serum (0.5% FBS and 1% HS); compared with NGF 100 ng/ml
Protocol: PC 12 cell differentiation was measured by plating cells onto collagen-coated 24-wells plates. NGF (100 ng/ml) or the small chemicals at different concentrations were added and the percentage of cells with neurite processes greater than two cell bodies in length were counted after relevant treatment. For each experiment at least 300 cells were randomly measured (Burstein and Greene, 1978).
PC12 cells were maintained at 37° C. in DMEM supplemented with 2.5% FBS, 15% of Horse serum (HS) and penicillin/streptomycin in a humidified 5% CO2 incubator. The cells were grown on 60- and 100-mm tissue culture dishes (Becton Dickinson).
PC 12 cells were cultured for 3 days in the presence of the peptoids (from 2 ng/ml to 50 μg/ml) under reduced serum conditions (0.5% FBS and 1% HS).

RN22 cells = test: RN22 cell survival under CuSO4 stress (MTT); assay type: cell-based, rat; settings: CuSO4 150 μM, 24 h, peptoids 1 ng/ml-10 μg/ml; compared with NGF 100 ng/ml
Protocol: The library was also tested to assess their capacity to promote cell survival of myelin producing cells. To delineate p75 signalling independent of TrkA, we used a rat schwannoma cell line (RN22) expressing p75, but not TrkA, (Gentry et al., 2000).
The rat schawnnoma cell line RN22 was cultured in 5% CO2 at 37° C. in Dulbecco's modified Eagle's medium (DMEM) with 10% fetal bovine serum (FBS) and penicillin/streptomycin.
RN22 cells were plated at 20,000 cells/well on a 24-well plate in DMEM alone and after allowing the cells to adhere for 3 days, cupper sulphate (CuSO4) (150 μM) was added with or without NGF (100 ng/ml) or the peptoids N35-4-8C, N6-4-17C and N35-4-17C at different concentrations (1 ng/ml-10 μg/ml) to generate stress and cell death. After 24 h cell viability was studied by determining the amount of yellow MTT (Sigma) that was reduced to insoluble purple formazan. After removing the medium, the water-insoluble formazan was solubilised with DMSO (Sigma), and the dissolved material was measured spectrophotometrically at a wavelength of 570 nm, subtracting the background at 650 nm (Frade, 2005).

C57BL/6 EAE mice = test: Experimental autoimmune encephalomyelitis (EAE) clinical score; assay type: in vivo; settings: daily intraperitoneal, day 0 to day 25
Protocol: Trials were approved by the Parc Cientific de Barcelona Committee on Animal Care. Female C57BL/6 mice from Harlan (8-12 weeks old) were immunized subcutaneously in both hind pads with 300 μg of myelin oligodendrocyte glycoprotein (MOG) peptide 35-55 (Spikem, Firenze) emulsified with 50 μg of Mycobacterium tuberculosis (H37Ra strain; Difco, Detroit, Mich.) in incomplete Freund's adjuvant (IFA) as previously described (Adams et al. 2007). Mice were intraperitoneally injected with Pertussis toxin (Sigma)(500 ng) at the time of immunization and 2 days later. Animals were weighted and inspected for clinical signs of disease on a daily basis by a blinded observer. Disease severity of EAE was assessed according to the following scale: 0=normal; 0.5=mild limp tail; 1=limp tail; 2=mild parapesis of the hind limbs, unsteady gait; 3=moderate parapesis, voluntary movements still possible; 4=paraplegia or tetraparesis; 5=moribund state. Data shown for the clinical studies are representative of two independent experiments performed with the indicated number of animals (Moreno et al., 2006).
The agonist molecules selected for the animal studies, N35-4-8C, N6-4-17C and N35-4-17C, were prepared in water with 5% DMSO. Animals were treated with the agonist molecule (25, 50 and 100 mg/kg) or placebo (water+5% DMSO) through daily intraperitoneal injection starting after immunization. At the end of the study, mice were anesthetized and perfused intracardially with 4% of paraformaldehyde in 0.1M phosphate buffer (pH 7.6). Brains, spinal cords and spleens were dissected and either fixed or frozen until use. Serum was obtained from all animals included in the study, and transaminases levels were measured.
In order to evaluate the effects of the NGF-like peptoids “in vivo”, we studied the effect of the NGF-mimetic peptoids in the animal model of MS. C57BL/6 mice immunized with MOG35-55 peptide were treated daily with N35-4-8C, N6-4-17C and N35-4-17C intraperitoneally from day 0 to day 25 at a different concentrations of the compound. N35-4-8C was tested at 3 different concentrations selected in base to previous experiments using agonist molecules in animal models: 25 mg/kg, 50 mg/kg and 100 mg/kg. […] N35-4-17C was also tested at the same concentrations. […] Moreover, the treatment had higher clinical scores with a clear worsening in the progression of the disease (FIG. 4C).

[1] = test system: splenocytes isolated from naïve C57BL/6 mice; test: Splenocyte proliferation assay (MOG stimulated); assay type: cell-based; settings: MOG 10 μg/ml, splenocytes cultured 2 hours with compound before MOG, p<0.05
Protocol: FIG. 6 depicts effects of N35-4-8C on the peripheral immune response during EAE. […] Splenocytes were cultured for 2 hours with N35-4-8C before MOG addition. Data are means±standard error. *p<0.05 with respect to cells treated with MOG only. FIG. 6B: Gene expression profile of cytokines and inducible nitric oxide synthase (iNOS) assayed by quantitative reverse transcriptase-polymerase chain reaction (RT-PCR) in the spleen of placebo and treated animals at the end of the experiment. Data are expressed as fold change in gene expression levels in the treated groups compared with untreated controls. *p<0.05. IFN=interferon; IL=interleukin; TNF=tumor necrosis factor.
Splenocytes from naïve, non immunized C57BL/6 mice were obtained for in vitro assessment of the effect of N35-4-8C in cell proliferation. Splenocyte proliferation assay was performed as described previously (Martinez-Forero et al., 2008).

## CC(C)CCN(CC(=O)N(CCCN1CCCC1=O)CC(N)=O)C(=O)CNCCc1ccccc1F [N35-4-8C, [N-(2-(2′-Fluorophenyl)ethyl)glycyl]-[N-(3-methylbutyl)glycyl]-N-[3-(2′-oxopyrrolidinyl)propyl]glycinamide]
PC12 cells
  differentiation of PC12 cells: induce the differentiation of PC12 cells at different concentrations to an extent substantially comparable with that induce by NGF
RN22 cells
  survival of RN22 cells (cell viability, MTT): promote survival of RN22 cells
C57BL/6 EAE mice; 25 mg/kg
  EAE clinical severity: no effect in disease clinical severity
C57BL/6 EAE mice; 50 mg/kg
  EAE clinical severity: an effect but more moderate
C57BL/6 EAE mice; 100 mg/kg
  EAE clinical severity: almost a complete prevention of EAE; also recorded: prevents EAE
[1]
  MOG specific proliferative response of splenocytes: significantly lower; also recorded: inhibits the proliferation of splenocytes
